Laboratory results as given in patent US6432403B1, “Antibodies to polypeptides having prenylcysteine carboxyl methlytransferase activity or inhibiting activity” (New York University, priority 1997, dated 2002).
“Also recorded” adds a separate entry of the source.

What was measured:
GFP-Nras = test: Subcellular localization of GFP-Nras in transfected COS-1 cells (epifluorescence microscopy); type: cell-based; details: 200 μM during the 24-hour transfection
Description: FIGS. 8A-8C show the effect of a pcCMT inhibitor (AFC) on the subcellular localization of Nras. In FIG. 8A, COS-1 cells were transiently transfected with GFP-Nras and observed live at 24 hours by epifluorescence microscopy to reveal both surface membrane (arrowheads) and intense perinuclear (Golgi) fluorescence. The position of the […] is marked (N). […] Bars indicate […].
Expression of Recombinant pcCMT: The 3.6-kb full-length HL60 pcCMT cDNA and an 852-bp cDNA fragment comprising the ORF were subcloned into the eukaryotic expression vectors pCDM8 and pcDNA3.1 (Invitrogen, Carlsbad, Calif.). Myc-tagged pcCMT was made by adding a sequence encoding the 10-amino acid epitope of c-Myc recognized by monoclonal antibody 9E10 to the C terminus of pcCMT using patch PCR and subcloning into pcDNA3.1. pcCMT tagged at the C terminus with GFP was generated by subcloning the pcCMT ORF into the expression vector pGFP-N3 (Clontech). For pcCMT enzymatic assays, COS-1 cells were grown in 10-cm dishes and transfected with pcCMT with DEAE-dextran as described (Aruffo et al, 1987). For fluorescence microscopy, exponentially growing COS-1, CHO, and NIH3T3 cells were plated the day prior to transfection at 50-60% confluence and transfected with 2 μg of DNA using LipofectAMINE (Life Technologies, Inc.), Gaithersburg, Md.) according to the manufacturer's instructions. […]

[1] = target: T1, endogenous neutrophil pcCMT (Homo sapiens, UniProt O60725); test: Carboxyl methylation of Rho GTPases by human neutrophil membranes; type: biochemical; details: stated identical to the recombinant enzyme; read-out: ED50 for endogenous neutrophil pcCMT
T1 construct: endogenous in cells; host or cells: human peripheral blood neutrophils, light membranes (nitrogen cavitation, sucrose density centrifugation)
Description: (§1) FIGS. 5A and 5B show the carboxyl methylation of ras-related GTPases by COS-1 cell membranes expressing ectopic human pcCMT. In FIG. 5A, neutrophil cytosol (CS) containing a mixture of Rho family proteins complexed with Rho-GDI (lanes 2, 3, 6, 7, 10, 11) or RhoA-GDI complexes partially purified from CS (lanes 4, 8, 12) were incubated with the methyl donor S-adenosyl-L-[methyl-^3H]methionine and light membranes derived from nitrogen cavitation of human neutrophils (lanes 1-4) or COS-1 cells transiently transfected with either human pcCMT (lanes 5-8) or vector alone (lanes 9-12). In some reactions (lanes 3, 7, 11) a competitive pcCMT inhibitor, AFC, was included. Reaction products were analyzed by SDS-PAGE and fluorography. The position of carboxyl methylated […] is indicated as is the position of protein phosphatase 2a (PP2a) that is methylated on a C-terminal leucine by an enzyme unrelated to pcCMT (Lee et al, 1993). […] Carboxyl methyltransferase activity was quantitated in membranes of COS-1 cells transfected with HL60 pcCMT using prenylcysteine analogs as defined substrates (Philips et al, 1995). […]

human pcCMT = target: T2, human pcCMT (Homo sapiens, UniProt O60725); test: Carboxyl methylation of Rho GTPases by COS-1 cell membranes expressing human pcCMT (S-adenosyl-L-[methyl-3H]methionine labeling, SDS-PAGE, fluorography); type: biochemical; details: COS-1 membranes transfected with HL60 cDNA; read-out: ED50 for block of pcCMT activity toward Rho GTPases
T2 construct: The 3.6-kb full-length HL60 pcCMT cDNA and an 852-bp cDNA fragment comprising the ORF were subcloned into the eukaryotic expression vectors; expressed in transfected cells; host or cells: COS-1 cells (pCDM8 vector, DEAE-dextran transfection); light membranes after nitrogen cavitation
Description: as §1

T1 sequence (O60725 whole entry): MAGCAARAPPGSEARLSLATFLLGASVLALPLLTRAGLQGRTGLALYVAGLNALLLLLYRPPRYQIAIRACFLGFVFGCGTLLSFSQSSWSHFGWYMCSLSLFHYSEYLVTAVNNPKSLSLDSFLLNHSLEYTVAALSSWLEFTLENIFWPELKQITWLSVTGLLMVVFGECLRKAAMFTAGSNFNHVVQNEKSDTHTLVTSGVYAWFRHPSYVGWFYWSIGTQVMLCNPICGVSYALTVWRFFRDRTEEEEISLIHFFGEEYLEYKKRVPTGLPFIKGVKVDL
T2 sequence (O60725 whole entry, the tested form may be a part): as the sequence (O60725 whole entry) above

- EC50 [1]: 10 µM
- EC50 (human pcCMT): 10 µM
SMILES: CC(=O)N[C@@H](CSC/C=C(\C)CC/C=C(\C)CCC=C(C)C)C(=O)O [AFC, N-acetyl-S-trans,trans-farnesyl-L-cysteine]
- Effect on membrane localization of GFP-Nras (GFP-Nras): blocked; also recorded: predominantly cytosolic localization
